Test results from patent publication US20240246942A1, “KINASE INHIBITORS FOR THE TREATMENT OF NEURODEGENERATIVE DISEASES” (priority 2020, published 2024).
Where two headings read alike, the source gives them in different places.

Columns and labels:
Experiment in all cases: biochemical
[1] = biological target: T1, panel of 374 wild-type kinases (Homo sapiens, UniProt Q6P3R8); details: read-out: % Enzyme Activity (relative to DMSO controls), NEK5
T1 construct: purchased Reaction Biology Corporation
T1 sequence (Q6P3R8 1-708): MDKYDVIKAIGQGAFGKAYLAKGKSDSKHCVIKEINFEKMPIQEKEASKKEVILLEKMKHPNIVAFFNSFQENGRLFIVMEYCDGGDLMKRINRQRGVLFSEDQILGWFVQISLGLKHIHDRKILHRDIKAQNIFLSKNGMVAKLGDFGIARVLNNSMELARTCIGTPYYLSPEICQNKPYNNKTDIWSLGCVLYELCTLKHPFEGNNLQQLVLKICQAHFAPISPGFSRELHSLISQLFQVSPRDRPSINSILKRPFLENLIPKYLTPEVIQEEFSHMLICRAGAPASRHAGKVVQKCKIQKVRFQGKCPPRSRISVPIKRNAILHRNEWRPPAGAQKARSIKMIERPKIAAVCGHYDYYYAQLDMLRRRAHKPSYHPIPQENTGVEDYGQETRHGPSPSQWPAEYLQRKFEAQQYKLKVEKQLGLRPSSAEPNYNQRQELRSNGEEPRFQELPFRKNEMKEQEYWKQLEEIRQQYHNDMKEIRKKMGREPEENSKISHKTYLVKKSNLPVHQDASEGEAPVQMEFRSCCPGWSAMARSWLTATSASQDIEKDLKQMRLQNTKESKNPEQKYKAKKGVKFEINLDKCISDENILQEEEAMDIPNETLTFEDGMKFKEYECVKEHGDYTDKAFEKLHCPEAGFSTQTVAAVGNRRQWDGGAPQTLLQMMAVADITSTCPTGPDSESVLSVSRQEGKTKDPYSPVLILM

[2] = biological target: T2, panel of 374 wild-type kinases (Homo sapiens, UniProt Q6PHR2); details: read-out: % Enzyme Activity (relative to DMSO controls), kinase ULK3
T2 construct: purchased Reaction Biology Corporation
T2 sequence (Q6PHR2 1-472): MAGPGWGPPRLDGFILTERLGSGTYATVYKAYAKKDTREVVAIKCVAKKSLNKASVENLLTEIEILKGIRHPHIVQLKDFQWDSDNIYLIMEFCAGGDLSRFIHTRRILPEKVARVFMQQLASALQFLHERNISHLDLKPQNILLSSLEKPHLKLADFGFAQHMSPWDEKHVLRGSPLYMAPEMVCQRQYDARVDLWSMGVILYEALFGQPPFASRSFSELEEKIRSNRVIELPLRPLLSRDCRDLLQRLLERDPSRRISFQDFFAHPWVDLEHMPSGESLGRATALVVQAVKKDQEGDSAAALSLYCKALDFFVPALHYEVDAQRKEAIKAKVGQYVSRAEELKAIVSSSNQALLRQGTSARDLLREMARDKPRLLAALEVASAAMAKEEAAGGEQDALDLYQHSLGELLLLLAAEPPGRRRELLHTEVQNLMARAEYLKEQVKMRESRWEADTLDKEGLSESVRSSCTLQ

[3] = biological target: T3, panel of 374 wild-type kinases (Homo sapiens, UniProt O75385); details: read-out: % Enzyme Activity (relative to DMSO controls), kinase ULK1
T3 construct: purchased Reaction Biology Corporation
T3 sequence (O75385 1-1050): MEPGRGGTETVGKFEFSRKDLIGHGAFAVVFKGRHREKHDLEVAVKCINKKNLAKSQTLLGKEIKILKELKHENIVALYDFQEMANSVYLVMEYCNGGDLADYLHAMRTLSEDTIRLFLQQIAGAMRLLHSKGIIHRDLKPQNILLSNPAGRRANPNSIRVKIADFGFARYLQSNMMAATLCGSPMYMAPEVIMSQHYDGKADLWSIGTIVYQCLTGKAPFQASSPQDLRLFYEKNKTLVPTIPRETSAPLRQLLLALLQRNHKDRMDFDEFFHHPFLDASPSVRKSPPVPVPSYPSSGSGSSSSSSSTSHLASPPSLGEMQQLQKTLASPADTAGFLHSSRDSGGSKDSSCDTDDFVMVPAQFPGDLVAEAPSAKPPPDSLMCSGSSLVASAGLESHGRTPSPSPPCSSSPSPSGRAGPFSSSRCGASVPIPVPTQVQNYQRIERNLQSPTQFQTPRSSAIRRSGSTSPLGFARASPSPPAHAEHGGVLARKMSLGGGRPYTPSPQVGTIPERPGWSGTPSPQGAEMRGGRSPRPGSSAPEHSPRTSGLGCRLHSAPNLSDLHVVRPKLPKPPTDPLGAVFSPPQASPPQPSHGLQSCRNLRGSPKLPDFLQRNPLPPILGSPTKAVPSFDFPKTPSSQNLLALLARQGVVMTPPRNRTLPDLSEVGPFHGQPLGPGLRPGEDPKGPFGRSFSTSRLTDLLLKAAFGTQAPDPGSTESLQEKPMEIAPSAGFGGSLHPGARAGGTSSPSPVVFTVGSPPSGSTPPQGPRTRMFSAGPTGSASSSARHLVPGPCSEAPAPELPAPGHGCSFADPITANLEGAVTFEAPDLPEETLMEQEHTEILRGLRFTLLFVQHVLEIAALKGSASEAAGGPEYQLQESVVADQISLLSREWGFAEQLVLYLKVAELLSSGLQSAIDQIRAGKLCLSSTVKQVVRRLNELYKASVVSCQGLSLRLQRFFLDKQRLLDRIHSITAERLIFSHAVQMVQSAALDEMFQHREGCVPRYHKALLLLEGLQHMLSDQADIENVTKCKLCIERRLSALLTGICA

[4] = biological target: T4, panel of 374 wild-type kinases (Homo sapiens, UniProt P49674); details: read-out: % Enzyme Activity (relative to DMSO controls), CK1epsilon
T4 construct: purchased Reaction Biology Corporation
T4 sequence (P49674 whole entry): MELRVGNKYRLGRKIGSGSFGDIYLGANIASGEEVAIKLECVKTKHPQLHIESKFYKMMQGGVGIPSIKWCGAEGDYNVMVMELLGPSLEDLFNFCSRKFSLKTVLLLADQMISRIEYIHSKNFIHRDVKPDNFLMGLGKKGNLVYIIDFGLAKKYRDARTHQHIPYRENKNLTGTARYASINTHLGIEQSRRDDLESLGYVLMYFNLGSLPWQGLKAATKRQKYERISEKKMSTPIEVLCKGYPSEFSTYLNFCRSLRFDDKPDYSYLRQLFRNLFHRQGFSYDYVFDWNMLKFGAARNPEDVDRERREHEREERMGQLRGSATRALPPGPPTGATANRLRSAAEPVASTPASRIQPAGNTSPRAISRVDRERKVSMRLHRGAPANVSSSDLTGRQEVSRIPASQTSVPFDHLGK

[5] = biological target: T5, panel of 374 wild-type kinases (Homo sapiens, UniProt P24941)
T5 construct: purchased Reaction Biology Corporation

[6] = biological target: T6, panel of 374 wild-type kinases (Homo sapiens, UniProt Q05655); details: read-out: % Enzyme Activity (relative to DMSO controls), kinase PKCd
T6 construct: purchased Reaction Biology Corporation
T6 sequence (Q05655 whole entry): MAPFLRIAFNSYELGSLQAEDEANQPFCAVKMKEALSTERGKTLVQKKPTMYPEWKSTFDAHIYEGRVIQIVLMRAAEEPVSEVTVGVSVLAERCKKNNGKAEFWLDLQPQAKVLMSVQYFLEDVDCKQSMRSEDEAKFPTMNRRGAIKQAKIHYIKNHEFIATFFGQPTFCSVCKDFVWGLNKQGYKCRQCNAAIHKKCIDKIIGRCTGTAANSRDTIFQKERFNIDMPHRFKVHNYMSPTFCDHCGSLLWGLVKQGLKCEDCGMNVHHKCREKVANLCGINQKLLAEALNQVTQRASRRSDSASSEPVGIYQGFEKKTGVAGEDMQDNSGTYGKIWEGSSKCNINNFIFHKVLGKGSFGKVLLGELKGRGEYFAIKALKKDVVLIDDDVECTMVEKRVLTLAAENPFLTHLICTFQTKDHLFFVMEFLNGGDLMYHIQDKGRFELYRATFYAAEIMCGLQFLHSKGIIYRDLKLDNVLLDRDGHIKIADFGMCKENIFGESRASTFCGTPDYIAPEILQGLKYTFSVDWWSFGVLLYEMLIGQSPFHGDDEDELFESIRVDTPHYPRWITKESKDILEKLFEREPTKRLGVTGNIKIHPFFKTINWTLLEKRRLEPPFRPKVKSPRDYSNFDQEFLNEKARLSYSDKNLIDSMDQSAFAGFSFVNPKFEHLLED

[7] = biological target: T7, panel of 374 wild-type kinases (Homo sapiens, UniProt Q9HCP0); details: read-out: % Enzyme Activity (relative to DMSO controls), CK1g1
T7 construct: purchased Reaction Biology Corporation
T7 sequence (Q9HCP0 whole entry): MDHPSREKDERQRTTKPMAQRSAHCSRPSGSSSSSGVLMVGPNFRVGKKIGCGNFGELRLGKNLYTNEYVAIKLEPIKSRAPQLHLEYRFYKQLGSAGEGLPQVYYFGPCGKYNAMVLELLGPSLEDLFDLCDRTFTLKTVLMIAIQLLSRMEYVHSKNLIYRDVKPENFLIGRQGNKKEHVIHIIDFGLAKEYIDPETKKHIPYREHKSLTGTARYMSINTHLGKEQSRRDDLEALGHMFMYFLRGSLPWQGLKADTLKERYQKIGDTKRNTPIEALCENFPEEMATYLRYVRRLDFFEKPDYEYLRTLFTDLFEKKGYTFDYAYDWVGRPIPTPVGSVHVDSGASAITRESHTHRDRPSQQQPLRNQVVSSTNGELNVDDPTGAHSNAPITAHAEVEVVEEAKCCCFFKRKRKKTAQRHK

[8] = biological target: T8, panel of 374 wild-type kinases (Homo sapiens, UniProt P22612); details: read-out: % Enzyme Activity (relative to DMSO controls), kinase PKAcg
T8 construct: purchased Reaction Biology Corporation
T8 sequence (P22612 whole entry): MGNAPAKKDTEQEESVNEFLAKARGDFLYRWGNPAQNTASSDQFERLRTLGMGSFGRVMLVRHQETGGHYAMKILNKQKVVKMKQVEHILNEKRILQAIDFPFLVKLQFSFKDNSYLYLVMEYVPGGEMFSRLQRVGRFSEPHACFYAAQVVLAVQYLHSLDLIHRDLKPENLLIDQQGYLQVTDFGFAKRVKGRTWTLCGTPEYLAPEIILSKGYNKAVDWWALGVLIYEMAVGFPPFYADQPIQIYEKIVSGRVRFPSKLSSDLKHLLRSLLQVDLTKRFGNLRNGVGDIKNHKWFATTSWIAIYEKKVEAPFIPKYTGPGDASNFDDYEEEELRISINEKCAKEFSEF

[9] = read-out: % Enzyme Activity (relative to DMSO controls), CDK2/Cyclin A1
[10] = read-out: % Enzyme Activity (relative to DMSO controls), CDK2/cyclin A
[11] = read-out: % Enzyme Activity (relative to DMSO controls), CDK2/cyclin E2
[12] = read-out: % Enzyme Activity (relative to DMSO controls), CDK2/cyclin E
[13] = read-out: % Enzyme Activity (relative to DMSO controls), CDK2/cyclin O

Row | Compound | remaining activity at 5 µM [1] [%] | remaining activity at 5 µM [2] [%] | remaining activity at 5 µM [3] [%] | remaining activity at 5 µM [4] [%] | remaining activity at 5 µM [5, 9] [%] | remaining activity at 5 µM [5, 10] [%] | remaining activity at 5 µM [5, 11] [%] | remaining activity at 5 µM [5, 12] [%] | remaining activity at 5 µM [5, 13] [%] | remaining activity at 5 µM [6] [%] | remaining activity at 5 µM [7] [%] | remaining activity at 5 µM [8] [%] | also measured
1 | O=C(Nc1cnn(-c2csc(C(=O)NC3COC3)c2)c1)Nc1ccccc1Cl [Compound 17, 4-(4-(3-(2-chlorophenyl)ureido)-1H-pyrazol-1-yl)-N-(oxetan-3-yl)thiophene-2-carboxamide] | 110 | 111 | 134 | 89.6 | 106 | 93.6 | 107 | 99 | 93.2 | 112 | 99 | 104 | 
2 | Cc1sc(C(=O)NC2COC2)cc1-n1cc(NC(=O)Nc2c(F)cccc2Cl)cn1 [Compound 27, 4-(4-(3-(2-chloro-6-fluorophenyl)ureido)-1H-pyrazol-1-yl)-5-methyl-N-(oxetan-3-yl)thiophene-2-carboxamide] |  |  |  |  |  |  |  |  |  |  |  |  | remaining activity at 10 µM ([1]; 10 uM): 105%; remaining activity at 10 µM ([2]; 10 uM): 105%; remaining activity at 10 µM ([3]; 10 uM): 77.3%; remaining activity at 10 µM ([4]; 10 uM): 97.9%; remaining activity at 10 µM [5, 9]: 111%; remaining activity at 10 µM [5, 10]: 98.3%; remaining activity at 10 µM [5, 11]: 90.8%; remaining activity at 10 µM [5, 12]: 106%; remaining activity at 10 µM [5, 13]: 105%; remaining activity at 10 µM ([6]; 10 uM): 98%; remaining activity at 10 µM ([7]; 10 uM): 101%; remaining activity at 10 µM ([8]; 10 uM): 99%
3 | O=C(Nc1cnn(-c2csc(C(=O)NC3COC3)c2)c1)Nc1c(F)cccc1Cl [Compound 25, 4-(4-(3-(2-chloro-6-fluorophenyl)ureido)-1H-pyrazol-1-yl)-N-(oxetan-3-yl)thiophene-2-carboxamide] | 88.1 | 76.6 | 93.9 | 88.6 | 94.2 | 93.8 | 98.9 | 94.6 | 94.1 | 101 | 102 | 97.6 | 
